The values that follow come from patent publication US10829798B2, “DNA-linked enzyme-coupled assays” (THE REGENTS OF THE UNIVERSITY OF CALIFORNIA, priority 2014, dated 2020).

One assay concerns the target T1, GT05 (UGT72B1 (Q9M156)) (Arabidopsis thaliana, UniProt Q9M156).
T1 construct: made in house; host or cells: PURExpress In Vitro Protein Synthesis Kit (NEB E6800L), cell-free transcription/translation, linear DNA amplified from pET15b construct
T1 sequence (Q9M156 1-480): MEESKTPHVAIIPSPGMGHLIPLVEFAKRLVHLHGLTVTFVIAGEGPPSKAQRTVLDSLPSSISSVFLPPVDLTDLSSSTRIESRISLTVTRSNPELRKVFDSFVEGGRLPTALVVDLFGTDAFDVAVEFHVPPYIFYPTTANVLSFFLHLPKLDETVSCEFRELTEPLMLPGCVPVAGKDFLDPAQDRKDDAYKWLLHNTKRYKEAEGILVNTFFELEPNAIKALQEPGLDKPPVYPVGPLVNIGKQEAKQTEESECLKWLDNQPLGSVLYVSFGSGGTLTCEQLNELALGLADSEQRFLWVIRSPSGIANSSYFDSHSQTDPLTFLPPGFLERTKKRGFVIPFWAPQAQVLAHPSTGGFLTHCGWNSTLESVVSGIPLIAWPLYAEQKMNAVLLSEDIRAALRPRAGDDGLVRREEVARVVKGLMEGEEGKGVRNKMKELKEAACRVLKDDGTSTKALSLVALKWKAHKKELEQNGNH
Briefly: qPCR DLEnCA, cell-free transcription/translation-derived GT05. It is filed as biochemical. Particulars: GT05 DNA 5 nM, chemical 1 mM, UDP-Glc 2 μM, probe 0.2 nM; low recovery = substrate glucosylated. The method, then: (§1) FIG. 4A-FIG. 4D. qPCR DLEnCA and substrate specificity studies. A. Chemicals used as substrates in subsequent assays: (i) known substrates of OleD; (ii) flavone library; (iii) known substrates of GT05 (UGT72B1 (Q9M156)) and GT06 (UGT89B1 (AT1 G73880)). B. DNA encoding OleD (5 nM) was incubated in a cell-free transcription/translation system for 3 hours at 37° C., followed by the addition of chemical (1 mM) and UDP-Glc (2 μM). After a subsequent incubation of 3 hours, TbGT and probe (0.2 nM) were added. After probe purification and MfeI digestion, probe integrity was identified using qPCR. Percent recovery of probe is reported (n=8; error bars=standard error). C. DNA encoding OleD (5 nM) was incubated for 3 hours at 37° C. in a cell-free transcription/translation system, followed by the addition of flavone (1 mM) and UDP-Glc (2 μM). After a subsequent incubation of 3 hours, TbGT and probe (0.2 nM) were added. After probe purification and MfeI addition, probe integrity was identified using qPCR. Percent recovery of probe is reported (n=8; error bars=standard error). D. DNA encoding OleD, GT05, or GT06 (5 nM) were incubated for 3 hours at 37° C. in a cell-free transcription/translation system, followed by the addition of chemical (1 mM) and UDP-Glc (2 μM). After a subsequent incubation of 3 hours, TbGT and probe (0.2 nM) were added. After probe purification and MfeI digestion, probe integrity was identified using qPCR. Percent recovery of probe is reported as a heat map (n=8) (specific recovery figures and percent error can be found in FIG. 16). *=p<0.05 vs. no chemical control.
PCR tubes were used for most reactions. All incubations were performed at 37° C. Assays were initiated upon the addition of linear DNA (5 nM final concentration) to 4 μl PURExpress Solution A and 3 μl PURExpress Solution B. Samples were incubated at 37° C. for 3 hours prior to addition of UDP-Glucose and chemical (1 mM final concentration) in DMSO. Samples were incubated for an additional 3 hours prior to addition of 1 unit T4 Phage β-glucosyltransferase containing 0.2 nM probe. […]
For orientation: Real-time PCR tracks product formation cycle by cycle.

Assay [1] deals with T2, GT06 (UGT89B1 (AT1G73880)) (Arabidopsis thaliana, UniProt Q9C9B0).
T2 sequence (Q9C9B0 1-473): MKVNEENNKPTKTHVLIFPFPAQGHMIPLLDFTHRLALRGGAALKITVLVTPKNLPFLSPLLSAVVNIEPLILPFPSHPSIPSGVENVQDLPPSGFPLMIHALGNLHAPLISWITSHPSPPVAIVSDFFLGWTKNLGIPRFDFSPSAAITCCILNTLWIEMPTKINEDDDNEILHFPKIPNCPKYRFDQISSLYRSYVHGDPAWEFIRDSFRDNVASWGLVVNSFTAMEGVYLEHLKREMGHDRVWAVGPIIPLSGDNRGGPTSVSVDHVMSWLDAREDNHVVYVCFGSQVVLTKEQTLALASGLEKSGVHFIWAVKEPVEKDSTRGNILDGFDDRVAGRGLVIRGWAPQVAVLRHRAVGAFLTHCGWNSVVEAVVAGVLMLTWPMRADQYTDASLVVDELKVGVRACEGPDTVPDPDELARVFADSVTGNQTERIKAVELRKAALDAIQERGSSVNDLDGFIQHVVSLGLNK
Briefly: qPCR DLEnCA, cell-free transcription/translation-derived GT06. Particulars: GT06 DNA 5 nM, chemical 1 mM, UDP-Glc 2 μM, probe 0.2 nM; low recovery = substrate glucosylated. It is filed as biochemical. The method, then:
as §1, with “After probe purification and MfeI digestion, probe integrity was identified using qPCR. Percent recovery of probe is reported as a heat map (n=8) (specific recovery figures and percent error can be found in FIG. 16). *=p<0.05 vs. no chemical control.” left out

Structures are written as SMILES.

The molecule `O=c1c(O)c(-c2ccc(O)cc2)oc2cc(O)cc(O)c12` [I, kaempferol] showed a recovery of probe on GT05 (UGT72B1 (Q9M156)) of 32%.
For `O=C(O)c1ccc(O)cc1` [XI, 4-hydroxybenzoic acid], in assay [1], the recovery of probe was 25%.
